# Columns and labels:
# Type in all cases: cell-based, human
# CCRF-CEM = experiment: NCI in vitro cancer screen, Leukemia
# K-562 = experiment: NCI in vitro cancer screen, Leukemia; settings: K-562
# SR = experiment: NCI in vitro cancer screen, Leukemia
# A549/ATCC = experiment: NCI in vitro cancer screen, Non-Small Cell Lung Cancer
# EKVX = experiment: as above
# NCI-H226 = experiment: as above; settings: NCI-H226
# NCI-H322M = experiment: as above
# NCI-H522 = experiment: as above; settings: NCI-H522
# HCC-2998 = experiment: NCI in vitro cancer screen, Colon Cancer; settings: HCC-2998
# HCT-116 = experiment: NCI in vitro cancer screen, Colon Cancer; settings: HCT-116
# SW-620 = experiment: NCI in vitro cancer screen, Colon Cancer; settings: SW-620
# SF-295 = experiment: NCI in vitro cancer screen, CNS Cancer; settings: SF-295
# SNB-19 = experiment: NCI in vitro cancer screen, CNS Cancer; settings: SNB-19
# SNB-75 = experiment: NCI in vitro cancer screen, CNS Cancer; settings: SNB-75
# M14 = experiment: NCI in vitro cancer screen, Melanoma; settings: M14
# MDA-MB-435 = experiment: NCI in vitro cancer screen, Melanoma; settings: MDA-MB-435
# SK-MEL-28 = experiment: NCI in vitro cancer screen, Melanoma; settings: SK-MEL-28
# SK-MEL-5 = experiment: NCI in vitro cancer screen, Melanoma; settings: SK-MEL-5
# UACC-257 = experiment: NCI in vitro cancer screen, Melanoma; settings: UACC-257
# IGROV1 = experiment: NCI in vitro cancer screen, Ovarian Cancer; settings: IGROV1
# OVCAR-3 = experiment: NCI in vitro cancer screen, Ovarian Cancer; settings: OVCAR-3
# OVCAR-8 = experiment: NCI in vitro cancer screen, Ovarian Cancer; settings: OVCAR-8
# SK-OV-3 = experiment: NCI in vitro cancer screen, Ovarian Cancer; settings: SK-OV-3
# 786-0 = experiment: NCI in vitro cancer screen, Renal Cancer; settings: 786-0
# ACHN = experiment: NCI in vitro cancer screen, Renal Cancer
# RXF-393 = experiment: NCI in vitro cancer screen, Renal Cancer; settings: RXF-393
# DU-145 = experiment: NCI in vitro cancer screen, Prostate Cancer; settings: DU-145
# MCF7 = experiment: NCI in vitro cancer screen, Breast Cancer; settings: MCF7
# [1] = test system: MDA-MB-231 (MDA-MB-231/ATCC); experiment: NCI in vitro cancer screen, Breast Cancer; settings: MDA-MB-231
# HS 578T = experiment: NCI in vitro cancer screen, Breast Cancer
# MDA-MB-468 = experiment: NCI in vitro cancer screen, Breast Cancer; settings: MDA-MB-468
# [2] = Homo sapiens, read-out: LC50 (the source's name)
smiles,measurement,setting,value
"COc1cc(/C=C/c2cc(O)cc(OCC=C(C)C)c2)ccc1O [USYDS2, (E)-3-(3-methyl-2-butenyloxy)-4′,5-dihydroxy-3′-methoxystilbene]",TGI,CCRF-CEM,>100 µM
same,GI50,CCRF-CEM; Homo sapiens,5.06 µM
same,CC50,CCRF-CEM; [2],> 100 µM
same,GI50,"K-562; Homo sapiens, K562",0.48 µM
same,CC50,"K-562; Homo sapiens, K562, read-out: LC50 (the source's name)",> 100 µM
same,TGI,K-562,>100 µM
same,TGI,SR,>100 µM
same,GI50,SR; Homo sapiens,0.54 µM
same,CC50,SR; [2],> 100 µM
same,TGI,A549/ATCC,13.0 µM
same,GI50,A549/ATCC; Homo sapiens,3.28 µM
same,CC50,A549/ATCC; [2],42.1 µM
same,TGI,EKVX,25.2 µM
same,GI50,EKVX; Homo sapiens,9.04 µM
same,CC50,EKVX; [2],66.4 µM
same,GI50,NCI-H226; Homo sapiens,5.43 µM
same,LC50 (50% lethal concentration),NCI-H226; Homo sapiens,46.4 µM
same,TGI,NCI-H226,19.1 µM
same,TGI,NCI-H322M,22.7 µM
same,GI50,NCI-H322M; Homo sapiens,9.64 µM
same,LC50 (50% lethal concentration),NCI-H322M; Homo sapiens,52.3 µM
same,GI50,NCI-H522; Homo sapiens,1.14 µM
same,CC50,NCI-H522; [2],14.7 µM
same,TGI,NCI-H522,3.57 µM
same,TGI,HCC-2998,17.3 µM
same,GI50,HCC-2998; Homo sapiens,4.61 µM
same,CC50,HCC-2998; [2],46.4 µM
same,TGI,HCT-116,11.9 µM
same,GI50,HCT-116; Homo sapiens,2.09 µM
same,LC50 (concentration killing 50% of cells),HCT-116; Homo sapiens,40 µM
same,GI50,SW-620; Homo sapiens,0.53 µM
same,CC50,SW-620; [2],40.7 µM
same,TGI,SW-620,14.0 µM
same,GI50,SF-295; Homo sapiens,3.94 µM
same,CC50,SF-295; [2],49.2 µM
same,TGI,SF-295,14.7 µM
same,GI50,SNB-19; Homo sapiens,5.02 µM
same,CC50,SNB-19; [2],53.6 µM
same,TGI,SNB-19,20.4 µM
same,GI50,SNB-75; Homo sapiens,2.14 µM
same,CC50,SNB-75; [2],55.8 µM
same,TGI,SNB-75,10.3 µM
same,GI50,M14; Homo sapiens,0.53 µM
same,CC50,M14; [2],49.4 µM
same,TGI,M14,15.4 µM
same,GI50,MDA-MB-435; Homo sapiens,0.34 µM
same,CC50,MDA-MB-435; [2],41.3 µM
same,TGI,MDA-MB-435,11.0 µM
same,GI50,SK-MEL-28; Homo sapiens,5.04 µM
same,LC50,SK-MEL-28; Homo sapiens,46.7 µM
same,TGI,SK-MEL-28,19.4 µM
same,GI50,SK-MEL-5; Homo sapiens,1.58 µM
same,CC50,SK-MEL-5; [2],34.3 µM
same,TGI,SK-MEL-5,11.5 µM
same,GI50,UACC-257; Homo sapiens,7.89 µM
same,CC50,UACC-257; [2],46 µM
same,TGI,UACC-257,20.6 µM
same,GI50,"IGROV1; Homo sapiens, IGROV-1",5.84 µM
same,CC50,"IGROV1; Homo sapiens, IGROV-1, read-out: LC50 (the source's name)",> 100 µM
same,TGI,IGROV1,46.7 µM
same,GI50,OVCAR-3; Homo sapiens,3.02 µM
same,CC50,OVCAR-3; [2],36.1 µM
same,TGI,OVCAR-3,10.7 µM
same,GI50,OVCAR-8; Homo sapiens,2.8 µM
same,CC50,OVCAR-8; [2],44.6 µM
same,TGI,OVCAR-8,14.8 µM
same,GI50,SK-OV-3; Homo sapiens,3.69 µM
same,CC50,SK-OV-3; [2],38.9 µM
same,TGI,SK-OV-3,14.9 µM
same,TGI,786-0,15.9 µM
same,GI50,786-0; Homo sapiens,3.55 µM
same,LC50 (50% net cell kill),786-0; Homo sapiens,98.8 µM
same,TGI,ACHN,17.5 µM
same,GI50,ACHN; Homo sapiens,3.76 µM
same,CC50,ACHN; [2],52.1 µM
same,GI50,RXF-393; Homo sapiens,1.35 µM
same,CC50,RXF-393; [2],23.6 µM
same,TGI,RXF-393,5.46 µM
same,TGI,DU-145,12.5 µM
same,GI50,DU-145; Homo sapiens,3.05 µM
same,CC50,DU-145; [2],37.8 µM
same,GI50,MCF7; Homo sapiens,1.24 µM
same,CC50,MCF7; [2],41 µM
same,TGI,MCF7,15.0 µM
same,GI50,[1]; Homo sapiens,0.25 µM
same,CC50,[1]; [2],15.7 µM
same,TGI,[1],2.10 µM
same,TGI,HS 578T,10.3 µM
same,GI50,HS 578T; Homo sapiens,1.28 µM
same,CC50,HS 578T; [2],> 100 µM
same,GI50,MDA-MB-468; Homo sapiens,2.72 µM
same,CC50,MDA-MB-468; [2],36.8 µM
same,TGI,MDA-MB-468,9.41 µM

# From patent publication US10696615B2, “Prenylated hydroxystilbenes” (The University of Sydney, priority 2011, dated 2020)
